Test results: patent publication US5100874A, “Hydroxamic acid tetrapeptide derivatives” (Fuji Yakuhin Kogyo Kabushiki Kaisha, priority 1987, dated 1992)
Where two headings read alike, the source gives them in different places. Square brackets hold non-standard residues; d marks the D form. Peptide text beside a SMILES is read from it. * marks the point of attachment. Benzoyl(4-OH) = O=C(c1ccc(O)cc1)*; 4Abz = Nc1ccc(C(=O)O)cc1; Boc = CC(C)(C)OC(=O)*; Bz = O=C(c1ccccc1)*; NHOH = ON*

How the values were obtained:
[1] = biological target: T1, human fibroblast collagenase (Homo sapiens, UniProt P03956); test: Inhibitory activity against human fibroblast collagenase (method of Nagai, FITC-derivatized bovine type I collagen); format: biochemical
T1 construct: collagenase derived from human fibroblasts; from tissue; host or cells: human fibroblasts
T1 sequence (P03956 100-469): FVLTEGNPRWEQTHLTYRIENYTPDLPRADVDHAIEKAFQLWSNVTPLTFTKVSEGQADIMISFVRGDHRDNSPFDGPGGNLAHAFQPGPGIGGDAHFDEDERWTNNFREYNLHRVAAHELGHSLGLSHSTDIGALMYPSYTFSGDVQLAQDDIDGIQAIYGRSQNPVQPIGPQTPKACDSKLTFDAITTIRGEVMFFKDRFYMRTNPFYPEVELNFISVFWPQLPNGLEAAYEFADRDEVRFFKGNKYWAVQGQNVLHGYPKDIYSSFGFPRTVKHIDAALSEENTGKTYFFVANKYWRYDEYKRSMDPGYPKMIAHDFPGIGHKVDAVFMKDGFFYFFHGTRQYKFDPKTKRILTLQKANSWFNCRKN
Method: (§1) (1) Inhibitory activity against collagenases
(§2) The inhibitory activity against human fibroblast collagenase (collagenase derived from human fibroblasts), tadpole-derived collagenase and bacteria (Clostridium)-derived collagenase was assayed in accordance with the method of Nagai [see Ensho, 4(2), 123 (1984)] using a fluorescence-labeledcollagen (FITC-derivatized bovine type I collagen).

[2] = tested on: bacteria (Clostridium)-derived collagenase; test: Inhibitory activity against bacteria (Clostridium)-derived collagenase (method of Nagai, FITC-derivatized bovine type I collagen); format: biochemical
Method: as §1, §2

[3] = tested on: sword bean-derived urease; test: Inhibitory activity against urease (method of Kobashi et al.); format: biochemical; details: at 4.0 × 10^-3 M
Method: (2) Inhibitory activity against urease
The inhibitory activity against urease was assayed in accordance with the method of Kobashi et al. [see Biochem. Biophys.

[4] = biological target: T2, thermolysin (Bacillus thermoproteolyticus, UniProt P00800); test: Inhibitory activity against thermolysin (method of Laskowski, thermally denatured casein substrate); format: biochemical; details: for inhibition at 4000 µM: at 4.0 × 10^-3 M
T2 sequence (P00800 233-548): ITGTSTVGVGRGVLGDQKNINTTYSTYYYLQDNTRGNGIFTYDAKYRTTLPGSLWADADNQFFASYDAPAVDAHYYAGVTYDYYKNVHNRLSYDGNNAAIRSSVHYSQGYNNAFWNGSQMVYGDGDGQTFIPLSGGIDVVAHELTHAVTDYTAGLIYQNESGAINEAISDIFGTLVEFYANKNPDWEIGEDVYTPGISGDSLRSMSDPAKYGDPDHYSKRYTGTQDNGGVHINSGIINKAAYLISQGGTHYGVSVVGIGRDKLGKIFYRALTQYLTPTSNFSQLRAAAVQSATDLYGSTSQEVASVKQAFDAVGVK
Method: (§3) (3) Inhibitory activity against thermolysin, trypsin and α-chymotrypsin
(§4) This was assayed in accordance with the method of Laskowski [see Meth. Enzymol., 2, 8 (1955)] using a thermally denatured casein as substrate for the respective enzymes (i.e. thermolysin, trypsin and α-chymotrypsin).

[5] = tested on: trypsin; test: Inhibitory activity against trypsin (method of Laskowski, thermally denatured casein substrate); format: biochemical
Method: as §3, §4

[6] = biological target: α-chymotrypsin (Bos taurus, UniProt P00766); test: Inhibitory activity against α-chymotrypsin (method of Laskowski, thermally denatured casein substrate); format: biochemical; details: for inhibition at 4000 µM: at 4.0 × 10^-3 M
Method: as §3, §4

[7] = tested on: mice; test: Acute toxicity test (LD50) in mice; format: in vivo
From the text: The toxicity of the new peptide compounds of this invention is as follows:
Acute toxicity test (LD50) in mice

[8] = biological target: T3, tadpole-derived collagenase (Aquarana catesbeiana, UniProt Q11133); test: biochemical
T3 construct: collagenase from tadpoles; from tissue
T3 sequence (Q11133 89-384): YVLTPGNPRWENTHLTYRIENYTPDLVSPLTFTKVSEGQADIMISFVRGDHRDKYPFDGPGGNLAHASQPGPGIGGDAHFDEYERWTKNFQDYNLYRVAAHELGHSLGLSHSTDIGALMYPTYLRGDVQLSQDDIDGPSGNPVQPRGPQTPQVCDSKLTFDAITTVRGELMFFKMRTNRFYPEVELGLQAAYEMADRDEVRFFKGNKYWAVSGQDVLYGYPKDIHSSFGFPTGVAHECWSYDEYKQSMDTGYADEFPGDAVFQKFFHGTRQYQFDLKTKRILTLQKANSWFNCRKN
Method: as §1, §2

[9] = read-out: IC50 Human fibroblast collagenase

For CC(C)C[C@@H](NC(=O)[C@@H]1CCCN1C(=O)CNC(=O)c1ccc(N)cc1)C(=O)N[C@H](C)C(=O)NO [Example 6] (H-[4Abz]GP[dL][dA]-{NHOH}; N-terminus and C-terminus assumed), the IC50 [1, 9] was 1.28 µM, the “Inhibition (%) Bacterial collagenase” value ([2]; at 2.0 × 10^-4 M) was 7.1% and the “Inhibition (%) Urease” value [3] was 2.0%. For the same compound, the inhibition at 4000 µM [4] was 26.8%, the “Inhibition (%) Trypsin” value ([5]; at 2.0 × 10^-3) was 6.5% and the inhibition at 2000 µM ([6]; at 2.0 × 10^-3 M) was 26.4%. The “LD50 Intraperitoneal administration” value [7] was over 2 g/kg and the “LD50 Intravenous administration” value [7] was over 200 mg/kg.
With CC(C)C[C@@H](NC(=O)[C@@H]1CCCN1C(=O)CNC(=O)c1ccc(O)cc1)C(=O)N[C@H](C)C(=O)NO [Example 7, p-Hydroxybenzoyl-glycyl-L-prolyl-D-leucyl-D-alanylhydroxamic acid] ({Benzoyl(4-OH)}-GP[dL][dA]-{NHOH}) the IC50 [1, 9] was 1.18 µM, the IC50 [8] was 1.05 µM and the inhibition at 4000 µM [4] was 60.4%. The inhibition at 4000 µM [6] was 22.3%, the “LD50 Intraperitoneal administration” value [7] was over 2 g/kg and the “LD50 Intravenous administration” value [7] was over 200 mg/kg.
In the case of CC(C)C[C@H](NC(=O)[C@@H]1CCCN1C(=O)CNC(=O)OC(C)(C)C)C(=O)N[C@H](C(=O)NO)C(C)C [Example 18, BocGlyProLeuValNHOH] (Boc-GPLV-{NHOH}), the IC50 [1, 9] is reported as 3.1 µM, the IC50 [8] is reported as 9.8 µM and the inhibition at 10100 µM ([4]; at 1.01 × 10^-2 M) is reported as 50%. For the same compound, the inhibition at 4000 µM [6] was 0%.
Work on CC(C)C[C@H](NC(=O)[C@@H]1CCCN1C(=O)CNC(=O)c1ccccc1)C(=O)N[C@@H](C)C(=O)NO [Example 34, BzGlyProLeuAlaNHOH] (Bz-GPLA-{NHOH}) yielded an IC50 [1] of 2.7 µM, an IC50 [8] of 7.7 µM and an inhibition at 4000 µM [4] of 35%. The inhibition at 200 µM ([6]; at 2.0 × 10^-4 M) was 0%.
For CC(C)C[C@@H](NC(=O)[C@@H]1CCCN1C(=O)CNC(=O)c1ccccc1)C(=O)N[C@H](C)C(=O)NO [Example 35, BzGlyPro-D-Leu-D-AlaNHOH] (Bz-GP[dL][dA]-{NHOH}), the IC50 [1] was 6.4 µM, the IC50 [8] was 3.1 µM and the inhibition at 4000 µM [4] was 38%. For the same compound, the inhibition at 100 µM ([6]; at 1.0 × 10^-4 M) was 12.8%.
CC(C)C[C@@H](NC(=O)[C@@H](CC(C)C)NC(=O)[C@@H]1CCCN1C(=O)CN1C(=O)c2ccccc2C1=O)C(=O)NO [Example 40, PTHGlyPro-D-Leu-D-LeuNHOH] was tested, and the IC50 [1, 9] was 3.6 µM, the IC50 ([8]; read-out: IC50 Tadpole collagenase) was 3.1 µM and the “Inhibition (%) Bacterial collagenase” value ([2]; at 4.0 × 10^-3 M) was 20.7%. For the same compound, the “Inhibition (%) Urease” value [3] was 3.3%, the inhibition at 4000 µM [4] was 32.2% and the “Inhibition (%) Trypsin” value ([5]; at 1.0 × 10^-2) was 21.6%. The inhibition at 10000 µM ([6]; at 1.0 × 10^-2 M) was 22.3%.
CC(C)C[C@H](NC(=O)[C@@H]1CCCN1C(=O)CNC(=O)c1ccc(N)cc1)C(=O)N[C@@H](C)C(=O)NO [Example 41, AcOH.ABAGlyProLeuAlaNHOH] (H-[4Abz]GPLA-{NHOH}) showed an IC50 [1, 9] of 3.7 µM, an IC50 [8] of 4 µM and an inhibition at 20 µM ([4]; at 2.0 × 10^-5 M) of 4%. For the same compound, the inhibition at 20 µM ([6]; at 2.0 × 10^-5 M) was 27.3%, the “LD50 Intraperitoneal administration” value [7] was over 2 g/kg and the “LD50 Intravenous administration” value [7] was over 200 mg/kg.
